From patent publication US10730863B2, “Bridged bicyclic compounds as farnesoid X receptor modulators” (BRISTOL-MYERS SQUIBB COMPANY, priority 2017, dated 2020)

Molecular target: FXR (Homo sapiens (Human), UniProt Q96RI1)
Assay: FXR EC50 (FXR agonist activity reported with each example)
Format: cell-based

FXR, sequence (Q96RI1 262-486): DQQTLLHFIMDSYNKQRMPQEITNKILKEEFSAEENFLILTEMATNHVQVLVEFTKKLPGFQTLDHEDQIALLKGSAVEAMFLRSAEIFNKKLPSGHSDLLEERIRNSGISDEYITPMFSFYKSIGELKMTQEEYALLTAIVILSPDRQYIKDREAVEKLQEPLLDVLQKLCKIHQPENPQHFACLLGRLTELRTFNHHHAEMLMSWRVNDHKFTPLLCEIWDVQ

**Q.** How did the EC50 turn out when `O=C(O)c1cccc2cc(OCC34CCC(OCc5c(-c6c(Cl)cncc6Cl)noc5C5CC5)(CC3)CC4)cnc12` [Example 352, 3-((4-((5-cyclopropyl-3-(3,5-dichloropyridin-4-yl)isoxazol-4-yl)methoxy)bicyclo[2.2.2]octan-1-yl)methoxy)quinoline-8-carboxylic acid] was run?
**A.** Its EC50 is 55 nM.

**Q.** How did the EC50 turn out when `O=C(O)c1cc(OCC2CCC2)c2cc(OCC34CCC(OCc5c(-c6c(Cl)cncc6Cl)noc5C5CC5)(CC3)CC4)ccc2n1` [Example 353] was run?
**A.** The EC50 was 11 nM.

**Q.** Which EC50 does the source give for `O=C(O)c1cc(OC(CO)CCl)c2cc(OCC34CCC(OCc5c(-c6c(Cl)cncc6Cl)noc5C5CC5)(CC3)CC4)ccc2n1` (centres unmarked) [Example 354, 4-((1-chloro-3-hydroxypropan-2-yl)oxy)-6-((4-((5-cyclopropyl-3-(3,5-dichloropyridin-4-yl)isoxazol-4-yl)methoxy)bicyclo[2.2.2]octan-1-yl)methoxy)quinoline-2-carboxylic acid] here?
**A.** The EC50 was 200 nM.

**Q.** `CC(C)COc1cc(C(=O)O)nc2ccc(OCC34CCC(OCc5c(-c6c(Cl)cncc6Cl)noc5C5CC5)(CC3)CC4)cc12` [Example 355] was tested. Which EC50 did it give?
**A.** The EC50 was 18 nM.

**Q.** Which EC50 does the source give for `O=C(O)c1cc(OCC(CO)CCl)c2cc(OCC34CCC(OCc5c(-c6c(Cl)cncc6Cl)noc5C5CC5)(CC3)CC4)ccc2n1` (centres unmarked) [Example 356] here?
**A.** The EC50 was 110 nM.

**Q.** How did the EC50 turn out when `CC(C)Oc1nc(C(=O)O)cc2ccc(OCC34CCC(OCc5c(-c6c(Cl)cncc6Cl)noc5C5CC5)(CC3)CC4)cc12` [Example 357, 7-((4-((5-cyclopropyl-3-(3,5-dichloropyridin-4-yl)isoxazol-4-yl)methoxy)bicyclo[2.2.2]octan-1-yl)methoxy)-1-isopropoxyisoquinoline-3-carboxylic acid] was run?
**A.** Its EC50 is 13 nM.

**Q.** `COc1cc(OCC23CCC(OCc4c(-c5c(Cl)cncc5Cl)noc4C4CC4)(CC2)CC3)ccc1C(=O)O` [Example 358] was tested. Which EC50 did it give?
**A.** The EC50 was 52 nM.

**Q.** Which EC50 does the source give for `O=C(O)c1cc(OCC2COC2)c2cc(OCC34CCC(OCc5c(-c6c(Cl)cncc6Cl)noc5C5CC5)(CC3)CC4)ccc2n1` [Example 360] here?
**A.** Its EC50 is 140 nM.

**Q.** With `O=C(O)c1cc(OC2COC2)c2cc(OCC34CCC(OCc5c(-c6c(Cl)cncc6Cl)noc5C5CC5)(CC3)CC4)ccc2n1` [Example 361] as the compound, how does the EC50 read?
**A.** Its EC50 is 71 nM.

**Q.** For `O=C(O)c1ccc2c(c1)CN(CC13CCC(OCc4c(-c5c(Cl)cccc5Cl)noc4C4CC4)(CC1)CC3)CC2` [Example 362, 2-((4-((5-cyclopropyl-3-(2,6-dichlorophenyl)isoxazol-4-yl)methoxy)bicyclo[2.2.2]octan-1-yl)methyl)-1,2,3,4-tetrahydroisoquinoline-7-carboxylic acid], which EC50 is on record?
**A.** The EC50 was 170 nM.

**Q.** `Cn1cc(C(=O)O)c2ccc(C#CC34CCC(OCc5c(-c6c(Cl)cncc6Cl)noc5C5CC5)(CC3)CC4)nc21` [Example 363] was tested. Which EC50 did it give?
**A.** Its EC50 is 260 nM.

**Q.** Which EC50 does the source give for `O=C(O)c1cc(C(F)(F)F)c2cc(C#CC34CCC(OCc5c(-c6c(Cl)cncc6Cl)noc5C5CC5)(CC3)CC4)ccc2n1` [Example 364] here?
**A.** The EC50 was 42 nM.

**Q.** With `Cn1nc(C(=O)O)c2ccc(C34CCC(OCc5c(-c6c(Cl)cncc6Cl)noc5C5CC5)(CC3)CC4)nc21` [Example 365] as the compound, how does the EC50 read?
**A.** Its EC50 is 49 nM.

**Q.** `O=C(O)c1cc(C#CC23CCC(OCc4c(-c5c(Cl)cncc5Cl)noc4C4CC4)(CC2)CC3)cc(C(F)(F)F)c1` [Example 366] was tested. Which EC50 did it give?
**A.** The EC50 was 27 nM.

**Q.** With `COc1ccc(C#CC23CCC(OCc4c(-c5c(Cl)cncc5Cl)noc4C4CC4)(CC2)CC3)cc1C(=O)O` [Example 367] as the compound, how does the EC50 read?
**A.** The EC50 was 91 nM.

**Q.** With `O=C(O)c1cccc2nc(C34CCC(OCc5c(-c6c(Cl)cncc6Cl)noc5C5CC5)(CC3)CC4)ccc12` [Example 368] as the compound, how does the EC50 read?
**A.** Its EC50 is 36 nM.

**Q.** `O=C(O)c1cc(F)c2nc(C34CCC(OCc5c(-c6c(Cl)cncc6Cl)noc5C5CC5)(CC3)CC4)ccc2c1` [Example 369] was tested. Which EC50 did it give?
**A.** The EC50 was 41 nM.

**Q.** Which EC50 does the source give for `O=C(O)c1cc(C(F)(F)F)c2nc(C34CCC(OCc5c(-c6c(Cl)cncc6Cl)noc5C5CC5)(CC3)CC4)ccc2c1` [Example 370] here?
**A.** Its EC50 is 56 nM.

**Q.** Which EC50 does the source give for `COc1ccc(C(=O)O)c2ccc(C34CCC(OCc5c(-c6c(Cl)cncc6Cl)noc5C5CC5)(CC3)CC4)nc12` [Example 371] here?
**A.** Its EC50 is 18 nM.

**Q.** With `O=C(O)c1cc(C(F)(F)F)c2nccc(C34CCC(OCc5c(-c6c(Cl)cncc6Cl)noc5C5CC5)(CC3)CC4)c2c1` [Example 372] as the compound, how does the EC50 read?
**A.** Its EC50 is 570 nM.

**Q.** Which EC50 does the source give for `O=C(O)c1cc(C(F)(F)F)cc(C#CC23CCC(OCc4c(-c5c(Cl)cncc5Cl)noc4C4CC4)(CC2)CC3)n1` [Example 373] here?
**A.** Its EC50 is 460 nM.

**Q.** Which EC50 does the source give for `O=C(O)c1cnc(C#CC23CCC(OCc4c(-c5c(Cl)cncc5Cl)noc4C4CC4)(CC2)CC3)cc1C(F)(F)F` [Example 374] here?
**A.** The EC50 was 130 nM.

**Q.** How did the EC50 turn out when `COc1cc(C(=O)O)nc2ccc(C#CC34CCC(OCc5c(-c6c(Cl)cncc6Cl)noc5C5CC5)(CC3)CC4)cc12` [Example 375] was run?
**A.** The EC50 was 57 nM.

**Q.** `O=C(O)c1cc(OC(F)F)c2cc(C#CC34CCC(OCc5c(-c6c(Cl)cncc6Cl)noc5C5CC5)(CC3)CC4)ccc2n1` [Example 376] was tested. Which EC50 did it give?
**A.** Its EC50 is 27 nM.

**Q.** `COc1cc(C#CC23CCC(OCc4c(-c5c(Cl)cncc5Cl)noc4C4CC4)(CC2)CC3)nc(C(=O)O)c1` [Example 377] was tested. Which EC50 did it give?
**A.** The EC50 was 390 nM.

**Q.** For `O=C(O)c1cc(C#CC23CCC(OCc4c(-c5c(Cl)cncc5Cl)noc4C4CC4)(CC2)CC3)cc(OC(F)(F)F)c1` [Example 378], which EC50 is on record?
**A.** Its EC50 is 130 nM.

**Q.** With `O=C(O)c1cnc(C#CC23CCC(OCc4c(-c5c(Cl)cncc5Cl)noc4C4CC4)(CC2)CC3)c(F)c1` [Example 379] as the compound, how does the EC50 read?
**A.** The EC50 was 240 nM.

**Q.** For `COc1cc(C#CC23CCC(OCc4c(-c5c(Cl)cncc5Cl)noc4C4CC4)(CC2)CC3)cc(C(=O)O)c1` [Example 380], which EC50 is on record?
**A.** Its EC50 is 24 nM.

**Q.** How did the EC50 turn out when `COc1c(C#CC23CCC(OCc4c(-c5c(Cl)cncc5Cl)noc4C4CC4)(CC2)CC3)cccc1C(=O)O` [Example 381] was run?
**A.** The EC50 was 220 nM.

**Q.** Which EC50 does the source give for `O=C(O)c1ccc2cc(C#CC34CCC(OCc5c(-c6c(Cl)cncc6Cl)noc5C5CC5)(CC3)CC4)ccc2n1` [Example 382] here?
**A.** The EC50 was 62 nM.

**Q.** `COc1c(C#CC23CCC(OCc4c(-c5c(Cl)cncc5Cl)noc4C4CC4)(CC2)CC3)cccc1C(=O)O` [Example 383] was tested. Which EC50 did it give?
**A.** The EC50 was 820 nM.

**Q.** Which EC50 does the source give for `N#Cc1ccc(C(=O)O)c2ccc(C34CCC(OCc5c(-c6c(Cl)cncc6Cl)noc5C5CC5)(CC3)CC4)nc12` [Example 384, 8-cyano-2-(4-((5-cyclopropyl-3-(3,5-dichloropyridin-4-yl)isoxazol-4-yl)methoxy)bicyclo[2.2.2]octan-1-yl)quinoline-5-carboxylic acid] here?
**A.** Its EC50 is 820 nM.

**Q.** Which EC50 does the source give for `O=C(O)c1ccc(C2CC2)c2nc(C34CCC(OCc5c(-c6c(Cl)cncc6Cl)noc5C5CC5)(CC3)CC4)ccc12` [Example 385, 8-cyclopropyl-2-(4-((5-cyclopropyl-3-(3,5-dichloropyridin-4-yl)isoxazol-4-yl)methoxy)bicyclo[2.2.2]octan-1-yl)quinoline-5-carboxylic acid] here?
**A.** The EC50 was 13 nM.

**Q.** How did the EC50 turn out when `COCc1cc(C#CC23CCC(OCc4c(-c5c(Cl)cncc5Cl)noc4C4CC4)(CC2)CC3)cc(C(=O)O)c1` [Example 386] was run?
**A.** Its EC50 is 31 nM.

**Q.** Which EC50 does the source give for `Cc1cc(C(=O)O)ncc1C#CC12CCC(OCc3c(-c4c(Cl)cncc4Cl)noc3C3CC3)(CC1)CC2` [Example 387] here?
**A.** Its EC50 is 57 nM.

**Q.** How did the EC50 turn out when `Cc1cc(C#CC23CCC(OCc4c(-c5c(Cl)cncc5Cl)noc4C4CC4)(CC2)CC3)cnc1C(=O)O` [Example 388] was run?
**A.** The EC50 was 55 nM.

**Q.** `Cc1ccc(C(=O)O)c2ccc(C34CCC(OCc5c(-c6c(Cl)cncc6Cl)noc5C5CC5)(CC3)CC4)nc12` [Example 389] was tested. Which EC50 did it give?
**A.** The EC50 was 6 nM.

**Q.** `CC(C)Oc1cc(C(=O)O)nc2ccc(C#CC34CCC(OCc5c(-c6c(Cl)cncc6Cl)noc5C5CC5)(CC3)CC4)cc12` [Example 390] was tested. Which EC50 did it give?
**A.** The EC50 was 20 nM.
